Source: patent US4027016A, “Everninomicin antibacterial derivatives, electrochemical method for their manufacture, method for their use as antibacterial agents, and pharmaceutical compositions useful therefor” (Schering Corporation, priority 1976, dated 1977)
Values after ≈ are worked out from the molar mass of the structure shown. Structures can show the parent of a compound that is named as a salt. Where two headings read alike, the source gives them in different places.

How the values were obtained:
[1] = tested on: Staphylococcus aureus Strain 209B; experiment: Microbiological Activity (in vitro), Staphylococcus aureus Strain 209B; assay type: cell-based; details: STRAIN209B
[2] = tested on: Staphylococcus aureus Strain Gray; experiment: Microbiological Activity (in vitro), Staphylococcus aureus Strain Gray; assay type: cell-based
[3] = tested on: Staphylococcus aureus Strain Ziegler; experiment: Microbiological Activity (in vitro), Staphylococcus aureus Strain Ziegler; assay type: cell-based
[4] = tested on: Staphylococcus aureus Strain 59N; experiment: Microbiological Activity (in vitro), Staphylococcus aureus Strain 59N; assay type: cell-based; details: STRAIN59N
[5] = tested on: Staphylococcus aureus Strain Wood; experiment: Microbiological Activity (in vitro), Staphylococcus aureus Strain Wood; assay type: cell-based
[6] = Peak Serum Levels in Dogs; assay type: in vivo, dog; details: for Peak Serum Levels in Dogs: 10 mg/kg i.m., single dose, agar diffusion assay of serum
Experimental: In determining peak serum levels, the animal tested (e.g. dog) is given a single dose of 10 mg/kg of the everninomicin D derivative, blood samples are taken periodically, and the serum thereof is assayed for antibacterial activity by an agardiffusion-assay as described by Weinstein et al., Antimicrobial Agents and Chemotherapy, p. 24 (1964).

[7] = tested on: bacteria; details: known compounds, cited from earlier work
[8] = pKa; assay type: physicochemical
[9] = tested on: bacteria which are resistant to other antibacterial agents; experiment: Antibacterial activity against resistant bacteria (in words); assay type: cell-based; details: resistant to penicillin, penicillinase-resistant penicillins, tetracycline, macrolides such as erythromycin, lincomycin
[10] = tested on: gram-positive bacteria; experiment: Antibacterial activity against gram-positive bacteria (in words); assay type: cell-based; details: for antibacterial activity in vitro against gram-positive bacteria: e.g. Staphylococcus aureus, Staph. 11631, Staph. W., Streptococcus pyogenes C, Strep. pyogenes C-203, Bacillus subtilis
[11] = tested on: bacteria; experiment: Antibacterial activity, general (in words); details: when administered by injection
[12] = tested on: gram-negative bacteria; experiment: Antibacterial activity against gram-negative bacteria (in words); assay type: cell-based; details: certain gram-negative bacteria

COCC1OC(OC2OCC3OC4(OCC(O)(C(C)OC)C5OCOC54)OC3C2OC)C(OC)C(O)C1OC1OC(C)C(OC)C(OC2CC3(C)OC4(CC(O)C(OC5CC(OC6CC(C)(NO)C(OC)C(C)O6)C(OC(=O)c6c(C)c(Cl)c(O)c(Cl)c6OC)C(C)O5)C(C)O4)OC3C(C)O2)C1O (stereo not shown) [Hydroxylaminoeverninomicin D Sodium salt, reference compound]
MIC [1]: 0.06 µg/mL
MIC [2]: 0.06 µg/mL
MIC [3]: 0.06 µg/mL
MIC [4]: 0.03 µg/mL
MIC [5]: 0.06 µg/mL
Peak Serum Levels in Dogs [6]: 20-30

COCC1OC(OC2OCC3OC4(OCC(O)(C(C)OC)C5OCOC54)OC3C2OC)C(OC)C(O)C1OC1OC(C)C(OC)C(OC2OC(C)C3OC4(CC(O)C(OC5CC(O)C(OC(=O)c6c(C)c(Cl)c(O)c(Cl)c6OC)C(C)O5)C(C)O4)OC3(C)C2O)C1O (stereo not shown) [desevernitrose everninomicin B]
antibacterial activity ([7]; U.S. Pat. No. 3,920,629): having anti-bacterial activity

COCC1OC(OC2OCC3OC4(OCC(O)C5OCOC54)OC3C2OC)C(OC)C(O)C1OC1OC(C)C(OC)C(OC2CC3(C)OC4(CC(O)C(OC5CC(O)C(OC(=O)c6c(C)c(Cl)c(O)c(Cl)c6OC)C(C)O5)C(C)O4)OC3C(C)O2)C1O (stereo not shown) [desevernitrose everninomicin C]
antibacterial activity ([7]; U.S. Pat. No. 3,920,629): having anti-bacterial activity

COCC1OC(OC2OCC3OC4(OCC(O)(C(C)OC)C5OCOC54)OC3C2OC)C(OC)C(O)C1OC1OC(C)C(OC)C(OC2CC3(C)OC4(CC(O)C(OC5CC(O)C(OC(=O)c6c(C)c(Cl)c(O)c(Cl)c6OC)C(C)O5)C(C)O4)OC3C(C)O2)C1O (stereo not shown) [desevernitrose everninomicin D]
antibacterial activity ([7]; U.S. Pat. No. 3,920,629): having anti-bacterial activity
pKa [8]: 7.5

COCC1OC(OC2OCC3OC4(OCC(O)(C(C)OC)C5OCOC54)OC3C2OC)C(OC)C(O)C1OC1OC(C)C(OC)C(OC2OC(C)C3OC4(CC(O)C(OC5CC(OC6CC(C)(O)C(OC)C(C)O6)C(OC(=O)c6c(C)c(Cl)c(O)c(Cl)c6OC)C(C)O5)C(C)O4)OC3(C)C2O)C1O (stereo not shown) [everninomicin B-7]
antibacterial activity against resistant bacteria [9]: exhibit antibacterial activity against bacteria which are resistant to other antibacterial agents
inhibiting the growth of gram-positive bacteria [10]: antibacterial activity against gram-positive bacteria
antibacterial activity in vitro against gram-positive bacteria [10]: narrow spectrum antibacterial activity in vitro against gram-positive bacteria

COCC1OC(OC2OCC3OC4(OCC(O)C5OCOC54)OC3C2OC)C(OC)C(O)C1OC1OC(C)C(OC)C(OC2CC3(C)OC4(CC(O)C(OC5CC(OC6CC(C)(O)C(OC)C(C)O6)C(OC(=O)c6c(C)c(Cl)c(O)c(Cl)c6OC)C(C)O5)C(C)O4)OC3C(C)O2)C1O (stereo not shown) [everninomicin C-7]
antibacterial activity against resistant bacteria [9]: exhibit antibacterial activity against bacteria which are resistant to other antibacterial agents
inhibiting the growth of gram-positive bacteria [10]: antibacterial activity against gram-positive bacteria
antibacterial activity in vitro against gram-positive bacteria [10]: narrow spectrum antibacterial activity in vitro against gram-positive bacteria

COCC1OC(OC2OCC3OC4(OCC(O)(C(C)OC)C5OCOC54)OC3C2OC)C(OC)C(O)C1OC1OC(C)C(OC)C(OC2CC3(C)OC4(CC(O)C(OC5CC(OC6CC(C)(O)C(OC)C(C)O6)C(OC(=O)c6c(C)c(Cl)c(O)c(Cl)c6OC)C(C)O5)C(C)O4)OC3C(C)O2)C1O [everninomicin D-7]
antibacterial activity against resistant bacteria [9]: exhibit antibacterial activity against bacteria which are resistant to other antibacterial agents
MIC [1]: 0.3 µg/mL (≈ 0.199 µM)
MIC [2]: 0.3 µg/mL (≈ 0.199 µM)
antibacterial activity relative to precursor hydroxylaminoeverninomicin D [11]: antibacterial activity comparable to that of the precursor hydroxylaminoeverninomicin D
MIC [3]: 0.75 µg/mL (≈ 0.497 µM)
inhibiting the growth of gram-positive bacteria [10]: particularly effective in inhibiting the growth of gram-positive bacteria
antibacterial activity in vitro against gram-positive bacteria [10]: narrow spectrum antibacterial activity in vitro against gram-positive bacteria
MIC [4]: 0.075 µg/mL (≈ 0.0497 µM)
MIC [5]: 0.75 µg/mL (≈ 0.497 µM)
susceptibility of gram-negative bacteria [12]: certain gram-negative bacteria are also susceptible
Peak Serum Levels in Dogs [6]: 15-60
absorption and serum levels in the dog ([6]; when administered by injection): rapidly absorbed, producing high serum levels in the dog

COCC1OC(OC2OCC3OC4(OCC(O)(C(C)OC)C5OCOC54)OC3C2OC)C(OC)C(O)C1OC1OC(C)C(OC)C(OC2OC(C)C3OC4(CC(O)C(OC5CC(OC6CC(C)(NO)C(OC)C(C)O6)C(OC(=O)c6c(C)c(Cl)c(O)c(Cl)c6OC)C(C)O5)C(C)O4)OC3(C)C2O)C1O (stereo not shown) [hydroxylaminoeverninomicin B]
antibacterial activity ([7]; U.S. Pat. No. 3,915,956): exhibit antibacterial activity

COCC1OC(OC2OCC3OC4(OCC(O)C5OCOC54)OC3C2OC)C(OC)C(O)C1OC1OC(C)C(OC)C(OC2CC3(C)OC4(CC(O)C(OC5CC(OC6CC(C)(NO)C(OC)C(C)O6)C(OC(=O)c6c(C)c(Cl)c(O)c(Cl)c6OC)C(C)O5)C(C)O4)OC3C(C)O2)C1O (stereo not shown) [hydroxylaminoeverninomicin C]
antibacterial activity ([7]; U.S. Pat. No. 3,915,956): exhibit antibacterial activity

COCC1OC(OC2OCC3OC4(OCC(O)(C(C)OC)C5OCOC54)OC3C2OC)C(OC)C(O)C1OC1OC(C)C(OC)C(OC2CC3(C)OC4(CC(O)C(OC5CC(OC6CC(C)(NO)C(OC)C(C)O6)C(OC(=O)c6c(C)c(Cl)c(O)c(Cl)c6OC)C(C)O5)C(C)O4)OC3C(C)O2)C1O (stereo not shown) [hydroxylaminoeverninomicin D]
antibacterial activity ([7]; U.S. Pat. No. 3,915,956): exhibit antibacterial activity

COCC1OC(OC2OCC3OC4(OCC(O)(C(C)OC)C5OCOC54)OC3C2OC)C(OC)C(O)C1OC1OC(C)C(OC)C(OC2OC(C)C3OC4(CC(O)C(OC5CC(OC6CC(C)(N=O)C(OC)C(C)O6)C(OC(=O)c6c(C)c(Cl)c(O)c(Cl)c6OC)C(C)O5)C(C)O4)OC3(C)C2O)C1O (stereo not shown) [nitrosoeverninomicin B]
antibacterial activity ([7]; U.S. Pat. No. 3,915,956): exhibit antibacterial activity

COCC1OC(OC2OCC3OC4(OCC(O)C5OCOC54)OC3C2OC)C(OC)C(O)C1OC1OC(C)C(OC)C(OC2CC3(C)OC4(CC(O)C(OC5CC(OC6CC(C)(N=O)C(OC)C(C)O6)C(OC(=O)c6c(C)c(Cl)c(O)c(Cl)c6OC)C(C)O5)C(C)O4)OC3C(C)O2)C1O (stereo not shown) [nitrosoeverninomicin C]
antibacterial activity ([7]; U.S. Pat. No. 3,915,956): exhibit antibacterial activity

COCC1OC(OC2OCC3OC4(OCC(O)(C(C)OC)C5OCOC54)OC3C2OC)C(OC)C(O)C1OC1OC(C)C(OC)C(OC2CC3(C)OC4(CC(O)C(OC5CC(OC6CC(C)(N=O)C(OC)C(C)O6)C(OC(=O)c6c(C)c(Cl)c(O)c(Cl)c6OC)C(C)O5)C(C)O4)OC3C(C)O2)C1O (stereo not shown) [nitrosoeverninomicin D]
antibacterial activity ([7]; U.S. Pat. No. 3,915,956): exhibit antibacterial activity
